Our source for the Ki values is paper PMC7179226, “Sulfonamide Inhibition Studies of the β-Class Carbonic Anhydrase CAS3 from the Filamentous Ascomycete Sordaria macrospora” (Molecules, 2020).

The target in test [1] is T1, CAS3 (Sordaria macrospora, UniProt F7VU04).
T1 construct: gene SMAC_03179; primers imply N-terminus (M)MPVTNEE and C-terminus KTVRVV-LE-His6
T1 sequence (F7VU04 1-174): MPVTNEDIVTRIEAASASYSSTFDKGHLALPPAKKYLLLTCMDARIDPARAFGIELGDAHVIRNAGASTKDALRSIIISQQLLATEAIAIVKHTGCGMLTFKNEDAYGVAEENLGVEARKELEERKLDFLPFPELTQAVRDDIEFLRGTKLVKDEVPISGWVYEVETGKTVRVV
In words: biochemical. As to conditions: read-out: KI* (nM) / CAS3 ^c / β. Here is the method: An Applied Photophysics stopped-flow instrument was used for assaying the CA catalyzed CO2 hydration activity. […] The initial rates of the CA-catalyzed CO2 hydration were followed for a period of 10–100 s for each assay. […] For each measurement, six traces of the initial 5%–10% of the reaction were used for determining the initial velocity. Then, 10-fold decreasing dilution of inhibitor solutions, ranging from 1 nM and 100 µM were employed for determining the inhibition constants. Uncatalyzed rates were determined in the same manner and subtracted from total observed rates. Stock solutions of inhibitor (0.1 mM) were prepared in distilled deionized water, and dilutions up to 1 nM were done thereafter with the assay buffer. Inhibitor and enzyme solutions were preincubated together for 15 min at room temperature before to assay for allowing for the formation of E–I complexes. The inhibition constants were obtained by non-linear least-squares methods using the Cheng–Prusoff equation, and they represent the mean from at least three different determinations. The human isoforms hCA I, II were assayed in the same conditions as above except that the working pH was 7.4 HEPES buffer with phenol red as an indicator [21, 22].

In test [2] the target is T2, CAS3 (Sordaria macrospora, UniProt F7VU04).
T2 construct: gene SMAC_03179; primers imply N-terminus (M)MPVTNEE and C-terminus KTVRVV-LE-His6
In words: stopped-flow CO2 hydration inhibition assay. In kind it is biochemical.

Where [3] appears, read: read-out: KI* (nM) / CAS3 ^c / β.

For the molecule `Nc1ccc(S(=O)(=O)Nc2ccc(S(N)(=O)=O)cc2)cc1` [compound 22], the Ki at CAS3 [1] was 85 ± 2.6 nM.
`O=C1NS(=O)(=O)c2ccccc21` [SAC]: the Ki at CAS3 [2] stood at 191 ± 12 nM.
In the case of `NS(=O)(=O)c1cccc(S(N)(=O)=O)c1` [compound 3], the Ki at CAS3 [1] worked out at 83 ± 6 nM.
With `NS(=O)(=O)c1ccc(N2CCCCS2(=O)=O)cc1` [SLT, sulthiame], the Ki on CAS3 [2] (setting [3]) is 4840 ± 257 nM.
For the molecule `Nc1ccc(S(=O)(=O)NCCc2ccc(S(N)(=O)=O)cc2)cc1` [compound 24], the Ki on CAS3 [1] came to 84 ± 1.5 nM.
Still for that read-out and setting: next, `Nc1cc(Cl)c(S(N)(=O)=O)cc1S(N)(=O)=O` [compound 12]: 90 ± 5.7 nM.
Still for that read-out and setting: for `NS(=O)(=O)c1cc(Cl)cc(Cl)c1O` [compound 10] the value was 350 ± 13 nM.
In the case of `NS(=O)(=O)c1nnc(NS(=O)(=O)c2ccccc2)s1` [BZA, benzolamide], the Ki at CAS3 [2] (setting [3]) worked out at 54 ± 0.9 nM.
In the case of `Nc1nccc(Nc2ccc(S(N)(=O)=O)cc2)n1` [compound 19], the Ki on CAS3 [1] worked out at 91 ± 4.4 nM.
The same measure, in the same setting: next, `Nc1ccc(S(N)(=O)=O)cc1F` [compound 7]: 585 ± 23 nM; `Nc1ccc(S(N)(=O)=O)cc1Br` [compound 9]: 712 ± 28 nM.
On to `CC1(C)O[C@@H]2[C@@H](CO[C@@]3(COS(N)(=O)=O)OC(C)(C)O[C@@H]23)O1` [TPM], for which, at CAS3 [2] (setting [3]), the Ki amounted to 363 ± 23 nM.
The same measure, in the same setting: next, `NS(=O)(=O)c1cc(Cl)c(Cl)c(S(N)(=O)=O)c1` [DCP, dichlorophnamide]: 73 ± 3 nM; `Cn1nc(S(N)(=O)=O)sc1=N` [compound 14, deacetylated precursor of methazolamide]: 94 ± 4.1 nM.
On the same count and under the same terms, for `CC(=O)N=c1sc(S(N)(=O)=O)nn1C` [MZA, methazolamide] the value was 91 ± 6.2 nM.
For `NS(=O)(=O)c1ccc(S(=O)(=O)Nc2cccc3c(Cl)c[nH]c23)cc1` [IND], on CAS3 [2] (setting [3]), the Ki worked out at 94 ± 4.6 nM.
For the molecule `Nc1cc(C(F)(F)F)c(S(N)(=O)=O)cc1S(N)(=O)=O` [compound 11], the Ki at CAS3 [1] amounted to 235 ± 16 nM.
Take `CCN1CCCC1CNC(=O)c1cc(S(N)(=O)=O)ccc1OC` (centres unmarked) [SLP]: the Ki on CAS3 [2] (setting [3]) came out at 493 ± 27 nM.
`Cc1ccc(-c2cc(C(F)(F)F)nn2-c2ccc(S(N)(=O)=O)cc2)cc1` [CLX] had a Ki at CAS3 [2] of 669 ± 29 nM.
`Cc1onc(-c2ccccc2)c1-c1ccc(S(N)(=O)=O)cc1` [VLX]: the Ki on CAS3 [2] (setting [3]) stood at 831 ± 38 nM.
On the same count and under the same terms, for `NS(=O)(=O)c1ccc(CO)cc1` [compound 16, 4-hydroxymethyl-benzenesulfonamide] the value was 82 ± 3.7 nM.
On to `NS(=O)(=O)c1ccc(CCO)cc1` [compound 17], for which the Ki on CAS3 [1] was 507 ± 26 nM.
Consider `Nc1nnc(S(N)(=O)=O)s1` [compound 13, deacetylated precursor of acetazolamide], for which the Ki at CAS3 [2] (setting [3]) was determined as 88 ± 2.9 nM.
As to `NS(=O)(=O)c1ccc(O)cc1` [compound 15], the Ki on CAS3 [1] was found to be 605 ± 23 nM.
Still for that read-out and setting: for `NCc1ccc(S(N)(=O)=O)cc1` [compound 5] the value was 726 ± 30 nM; for `Nc1ccc(S(=O)(=O)NCc2ccc(S(N)(=O)=O)cc2)cc1` [compound 23], 89 ± 3.4 nM.
As for `CCN[C@H]1CN(CCCOC)S(=O)(=O)c2sc(S(N)(=O)=O)cc21` [BRZ, brinzolamide], the Ki at CAS3 [2] (setting [3]) was determined as 61 ± 1.4 nM.
As for `NCCc1ccc(S(N)(=O)=O)cc1` [compound 6], the Ki at CAS3 [1] was determined as 441 ± 14 nM.
On the same count and under the same terms, next, `Nc1ccc(S(=O)(=O)Nc2nnc(S(N)(=O)=O)s2)cc1` [compound 20]: 85 ± 2.7 nM.
The molecule `NS(=O)(=O)c1cc2c(cc1Cl)NCNS2(=O)=O` [HCT] came in with a Ki on CAS3 [2] of 545 ± 41 nM.
As for `NS(=O)(=O)Cc1noc2ccccc12` [ZNS], the Ki at CAS3 [2] (setting [3]) stood at 710 ± 40 nM.
Regarding `NS(=O)(=O)c1ccc(CCNS(=O)(=O)c2ccc([N+](=O)[O-])cc2CO)cc1` [compound 21], at CAS3 [1], the Ki is 95 ± 3.9 nM.
On the same count and under the same terms, for `Cc1ccc(S(N)(=O)=O)cc1` [compound 4] the value was 560 ± 21 nM.
Take `Nc1ccc(S(N)(=O)=O)cc1Cl` [compound 8]: the Ki on CAS3 [1] came to 2080 ± 61 nM.
On to `NS(=O)(=O)c1ccc(C(=O)O)cc1` [compound 18], for which the Ki on CAS3 [1] amounted to 226 ± 13 nM.
